The assay has as its system Hepatocyte. The assay is described as follows: Hepatoprotective activity in Wistar rat CCL4-damaged hepatocyte assessed as blockade of glutamic pyruvic transaminase release at 100 uM relative to control. The format is functional, cell-based.
As for `C[C@@H]1[C@H]2c3cc4c(cc3O[C@@]35OCOC3=CC(=O)[C@H](C[C@H]1C)[C@H]25)OCO4` [SAUCHINONE A], the Activity was found to be 78.2%.

`C[C@@H]1[C@H]2c3cc4c(cc3O[C@@]35OCOC3=CC(=O)[C@@H](C[C@H]1C)[C@@H]25)OCO4`: the Activity was determined as 75.9%.

As to `C[C@@H]1[C@H]2c3cc4c(cc3O[C@@]35OCOC3=CC(=O)[C@H](C[C@H]1C)[C@@H]25)OCO4` [SAUCHINONE], the Activity came out at 70.1%.

As to `COc1cc(C2Oc3cc([C@H]4Oc5cc(O)cc(O)c5C(=O)[C@@H]4O)ccc3OC2CO)ccc1O` (some centres undefined) [SILIBININ], the Activity came out at 76.6%.

For the origin of these results see ChEMBL document CHEMBL1155559, “Hepatoprotective diastereomeric lignans from Saururus chinensis herbs” (J Nat Prod, 2000).
